Test results taken from US20200138827A1, “SMALL MOLECULE MODULATORS OF HUMAN STING” (Curadev Pharma Limited, priority 2017, published 2020).
Where two headings read alike, the source gives them in different places.

Key:
hSTING(HAQ) = biological target: T1, hSTING(HAQ) (Homo sapiens, UniProt Q86WV6, G230A/H232R/R293Q/R71H); test: Luciferase reporter assay in HEK293T-hSTING-Luciferase cells, HAQ polymorph; type: cell-based; conditions: 20 hr stimulation, read-out: HAQ activity (EC50 range)
T1 construct: host or cells: HEK293T
T1 sequence (Q86WV6 whole entry R71H/G230A/H232R/R293Q): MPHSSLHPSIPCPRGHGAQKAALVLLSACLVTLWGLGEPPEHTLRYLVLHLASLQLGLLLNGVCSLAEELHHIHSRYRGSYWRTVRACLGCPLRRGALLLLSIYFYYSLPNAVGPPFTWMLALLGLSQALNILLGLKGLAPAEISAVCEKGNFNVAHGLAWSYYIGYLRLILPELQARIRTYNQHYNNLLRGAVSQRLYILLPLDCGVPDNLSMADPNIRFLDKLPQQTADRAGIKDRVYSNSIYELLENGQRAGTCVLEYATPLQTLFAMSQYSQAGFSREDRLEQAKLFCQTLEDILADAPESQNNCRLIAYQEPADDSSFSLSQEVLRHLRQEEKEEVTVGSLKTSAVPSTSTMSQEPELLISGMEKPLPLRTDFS
Text: (§1) • a) Stable STING expressing cells—Stable HEK293T STING-expressing cell lines were generated using plasmids purchased from Invivogen, Calif., USA, that contain STING cDNA cloned into the pUNO-1 vector under hEF1-HTLV promoter and containing the Blasticidin selection cassette. The plasmids hSTING(R232), hSTING(H232), hSTING(HAQ) were directly procured from Invivogen while hSTING (AQ) and hSTING (Q) were derived from hSTING(HAQ) and hSTING (R232) plasmids respectively by using a PCR based site directed mutagenesis method. These vectors were individually transfected into HEK293T cells using Lipofectamine (Invitrogen) and transfected cells were selected under Blasticidin selection. These transfected cells were further subjected to clonal selection using the limiting dilution method to obtain clonally pure populations of HEK cells transfected with each of the above mentioned human STING variants. Only those clones were selected in which ligand independent activation of STING was minimal. • b) Stable Luciferase reporter gene expressing cells—Stable HEK293T Luciferase reporter gene expressing cell lines were generated using pCDNA4 plasmids under an IRF-inducible promoter. This promoter is comprised of five tandem interferon-stimulated response elements (ISRE) fused to an ISG54 minimal promoter. This vector was transfected into HEK293T cells using Lipofectamine (Invitrogen) and transfected cells were selected under Zeocin selection. These transfected cells were further subjected to clonal selection using the limiting dilution method to obtain clonally pure populations of HEK cells transfected the Luciferase reporter construct. Only those clones were selected in which ligand independent induction of luciferase was minimal.
(§2) 5×10^5 clonally selected HEK293T-hSTING-Luciferase cells were seeded in 384-well plates in growth medium and stimulated with novel compounds. After 20 hr of stimulation supernatant were removed and secretary reporter gene activity were measured using the Quanti-Luc detection system (Invivogen) on a Spectramax i3X luminometer.
(§3) The 5 major polymorphisms of human STING are shown in FIG. 1, with their prevalence in human populations indicated.

IRF pathway = test: Reporter gene expression assay in THP1-Dual cells, IRF axis (secreted Lucia luciferase); type: cell-based, human; conditions: read-out: THP-IRF activity (EC50 range)
Experimental: (§4) THP1-Dual™ cells (Invivogen) were derived from the human THP-1 monocyte cell line by stable integration of two inducible reporter constructs. As a result, THP1-Dual™ cells allow the simultaneous study of the NF-κB pathway, by monitoring the activity of secreted SEAP, and the IRF pathway, by assessing the activity of a secreted luciferase (Lucia). […] THP1-Dual™ cells were seeded in 384-well plates in growth medium and stimulated with novel compounds. After […] of stimulation supernatant were removed and reporter proteins were readily measured in the cell culture supernatant using QUANTI-Blue™ (Invivogen), a SEAP detection reagent, and QUANTI-Luc™ (Invivogen), a luciferase detection reagent on a Spectramax i3X luminometer.

NF-κB pathway = test: Reporter gene expression assay in THP1-Dual cells, NFkB axis (secreted SEAP); type: cell-based, human; conditions: read-out: THP-NFKB activity (EC50 range)
Experimental: as §4

hSTING(H232) = biological target: T2, hSTING(H232) (Homo sapiens, UniProt Q86WV6); test: Luciferase reporter assay in HEK293T-hSTING-Luciferase cells, H232 polymorph; type: cell-based; conditions: 20 hr stimulation, read-out: H232 activity (EC50 range)
T2 construct: host or cells: HEK293T
T2 sequence (Q86WV6 whole entry): as the sequence (Q86WV6 whole entry R71H/G230A/H232R/R293Q) above, with H71R, A230G, R232H, Q293R counted along it
Text: as §1, §2, §3

WT/R232 STING protein = biological target: T3, WT/R232 STING protein (Homo sapiens, UniProt Q86WV6, H232R); test: Luciferase reporter assay in HEK293T-hSTING-Luciferase cells, WT/R232; type: cell-based; conditions: 20 hr stimulation, read-out: R232 Activity (EC50 range)
T3 construct: host or cells: HEK293T
T3 sequence (Q86WV6 whole entry H232R): as the sequence (Q86WV6 whole entry R71H/G230A/H232R/R293Q) above, with H71R, A230G, Q293R counted along it
How it was run: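 […], read by luminescence from supernatant after 20 h compound stimulation. Cells: clonally selected HEK293T (5×10^5/well) stably carrying WT/R232 human STING and a luciferase reporter under five tandem ISREs fused to an ISG54 minimal promoter.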

EC50 (hSTING(HAQ))	EC50 (IRF pathway; Homo sapiens, THP1-Dual)	EC50 (NF-κB pathway; Homo sapiens, THP1-Dual)	EC50 (hSTING(H232))	EC50 (WT/R232 STING protein)	EC50 (IRF pathway)	EC50 (NF-κB pathway)	Structure (SMILES)
< 1 µM	1 to 10 µM	1 to 10 µM	< 1 µM	< 1 µM			CC1Sc2ncc(C(=O)NCc3c(F)cc(F)cc3F)cc2N(Cc2cc(F)cc(F)c2)C1=O (stereo not drawn) [Example 192, 1-(3,5-difluorobenzyl)-3-methyl-2-oxo-N-(2,4,6-trifluorobenzyl)-2,3-dihydro-1H-pyrido[2,3-b][1,4]thiazine-7-carboxamide]
1 to 10 µM			1 to 10 µM	< 1 µM	> 10 µM	> 10 µM	CC1Sc2ncc(C(=O)NCc3cc4ccccc4o3)cc2N(Cc2cc(F)cc(F)c2)C1=O (stereo not drawn) [Example 193, N-(benzofuran-2-ylmethyl)-1-(3,5-difluorobenzyl)-3-methyl-2-oxo-2,3-dihydro-1H-pyrido[2,3-b][1,4]thiazine-7-carboxamide]
< 1 µM			< 1 µM	< 1 µM	1 to 10 µM	1 to 10 µM	CC1Sc2ncc(C(=O)NCc3cc4ccccc4o3)cc2N(Cc2cc(F)cc(F)c2)C1=O (stereo not drawn) [Example 194, N-(benzofuran-2-ylmethyl)-1-(3,5-difluorobenzyl)-3-methyl-2-oxo-2,3-dihydro-1H-pyrido[2,3-b][1,4]thiazine-7-carboxamide]
1 to 10 µM	> 10 µM	1 to 10 µM	1 to 10 µM	< 1 µM			Cc1ccc(CNC(=O)c2cnc3c(c2)N(Cc2c(F)cccc2Cl)C(=O)C(C)S3)o1 (stereo not drawn) [Example 195, 1-(2-chloro-6-fluorobenzyl)-3-methyl-N-((5-methylfuran-2-yl)methyl)-2-oxo-2,3-dihydro-1H-pyrido[2,3-b][1,4]thiazine-7-carboxamide]
< 1 µM	1 to 10 µM	1 to 10 µM	< 1 µM	< 1 µM			CC1Sc2ncc(C(=O)NCc3c(F)cc(F)cc3F)cc2N(Cc2c(F)cccc2Cl)C1=O (stereo not drawn) [Example 196, 1-(2-chloro-6 fluorobenzyl) 3-methyl-2-oxo-N-(2,4,6-trifluorobenzyl)-2,3-dihydro-1H-pyrido[2,3-b][1,4]thiazine-7-carboxamide]
1 to 10 µM	> 10 µM	> 10 µM	1 to 10 µM	1 to 10 µM			O=C(NCc1cc2ccccc2o1)c1cnc2c(c1)N(Cc1c(F)cccc1Cl)C(=O)CS2 [Example 197, N-(benzofuran-2-ylmethyl)-1-(2-chloro-6-fluorobenzyl)-2-oxo-2,3-dihydro-1H-pyrido[2,3-b][1,4]thiazine-7-carboxamide]
< 1 µM			< 1 µM	< 1 µM	1 to 10 µM	1 to 10 µM	Cc1ccc(CNC(=O)c2ccc3c(n2)N(Cc2cc(F)cc(F)c2)C(=O)C(C)S3)o1 (stereo not drawn) [Example 198, 4-(3,5-difluorobenzyl)-2-methyl-N-((5-methylfuran-2-yl)methyl)-3-oxo-3,4-dihydro-2H-pyrido[3,2-b][1,4]thiazine-6-carboxamide]

Continued, compound first:

Structure (SMILES)	EC50 (hSTING(HAQ))	EC50 (IRF pathway; Homo sapiens, THP1-Dual)	EC50 (NF-κB pathway; Homo sapiens, THP1-Dual)	EC50 (hSTING(H232))	EC50 (WT/R232 STING protein)	EC50 (IRF pathway)	EC50 (NF-κB pathway)
Cc1cc(CN2C(=O)C(C)Sc3ccc(C(=O)NCc4c(F)cc(F)cc4F)cc32)no1 (stereo not drawn) [Example 159, 2-methyl-4-((5-methylisoxazol-3-yl)methyl)-3-oxo-N-(2,4,6-trifluorobenzyl)-3,4-dihydro-2H-benzo[b][1,4] thiazine-6-carboxamide]	1 to 10 µM	1 to 10 µM	1 to 10 µM	1 to 10 µM	< 1 µM		
CC1Sc2ccc(C(=O)NCc3c(F)cc(F)cc3F)cc2N(Cc2cccc(C(N)=O)c2)C1=O (stereo not drawn) [Example 160, 4-(3-carbamoylbenzyl)-2-methyl-3-oxo-N-(2,4,6-trifluorobenzyl)-3,4-dihydro-2H-benzo[b][1,4] thiazine-6-carboxamide]	> 10 µM	> 10 µM	> 10 µM	> 10 µM	< 1 µM		
CC1(C)Sc2ccc(C(=O)NCc3cc4ccccc4o3)cc2N(Cc2ccccc2F)C1=O [Example 161, N-(benzofuran-2-ylmethyl)-4-(2-fluorobenzyl)-2,2-dimethyl-3-oxo-3,4-dihydro-2H-benzo[b][1,4] thiazine-6-carboxamide]	1 to 10 µM	> 10 µM	> 10 µM	> 10 µM	1 to 10 µM		
O=C(NCc1c(F)cc(F)cc1F)c1cnc2c(c1)N(Cc1c(F)cccc1Cl)C(=O)CS2 [Example 178, 1-(2-chloro-6-fluorobenzyl)-2-oxo-N-(2,4,6-trifluorobenzyl)-2,3-dihydro-1H-pyrido[2,3-b-1,4]thiazine-7-carboxamide]	> 10 µM	> 10 µM	> 10 µM	> 10 µM	< 1 µM		
O=C(NCc1ccco1)c1ccc2c(n1)N(Cc1c(F)cccc1Cl)C(=O)CS2 [Example 181, 4-(2-chloro-6-fluorobenzyl)-N-(furan-2-ylmethyl)-3-oxo-3,4-dihydro-2H-pyrido[3,2-b-1,4]thiazine-6-carboxamide]	> 10 µM	> 10 µM	> 10 µM	> 10 µM	1 to 10 µM		
O=C(NCc1cc2ccccc2o1)c1ccc2c(n1)N(Cc1cc(F)cc(F)c1)C(=O)CS2 [Example 183, N-(benzofuran-2-ylmethyl)-4-(3,5-difluorobenzyl)-3-oxo-3,4-dihydro-2H-pyrido[3,2-b-1,4]thiazine-6-carboxamide]	1 to 10 µM	> 10 µM	1 to 10 µM	1 to 10 µM	1 to 10 µM		
CC1Sc2ccc(C(=O)NCc3ccc(F)cc3F)nc2N(Cc2c(F)cccc2Cl)C1=O (stereo not drawn) [Example 187, 4-(2-chloro-6-fluorobenzyl)-N-(2,4-difluorobenzyl)-2-methyl-3-oxo-3,4-dihydro-2H-pyrido[3,2-b-1,4]thiazine-6-carboxamide]	> 10 µM	> 10 µM	> 10 µM	> 10 µM	1 to 10 µM		
CC1Sc2ccc(C(=O)NCc3cc4ccccc4o3)nc2N(Cc2c(F)cccc2Cl)C1=O (stereo not drawn) [Example 188, N-(benzofuran-2-ylmethyl)-4-(2-chloro-6-fluorobenzyl)-2-methyl-3-oxo-3,4-dihydro-2H-pyrido[3,2-b-1,4]thiazine-6-carboxamide]	1 to 10 µM	> 10 µM	1 to 10 µM	1 to 10 µM	< 1 µM		
CC1Sc2ccc(C(=O)NCc3ccco3)nc2N(Cc2cc(F)cc(F)c2)C1=O (stereo not drawn) [Example 189, 4-(3,5-difluorobenzyl)-N-(furan-2-ylmethyl)-2-methyl-3-oxo-3,4-dihydro-2H-pyrido[3,2-b-1,4]thiazine-6-carboxamide]	1 to 10 µM	> 10 µM	> 10 µM	1 to 10 µM	< 1 µM		
Cc1ccc(CNC(=O)c2ccc3c(n2)N(Cc2cc(F)cc(F)c2)C(=O)C(C)S3)o1 (stereo not drawn) [Example 190, 4-(3,5-difluorobenzyl)-2-methyl-N-((5-methylfuran-2-yl)methyl)-3-oxo-3,4-dihydro-2H-pyrido[3,2-b-1,4]thiazine-6-carboxamide]	1 to 10 µM			1 to 10 µM	< 1 µM	1 to 10 µM	1 to 10 µM
CC1Sc2ccc(C(=O)NCc3ccccc3)nc2N(Cc2cc(F)cc(F)c2)C1=O (stereo not drawn) [Example 191, N-benzyl-4-(3,5-difluorobenzyl)-2-methyl-3-oxo-3,4-dihydro-2H-pyrido[3,2-b-1,4]thiazine-6-carboxamide]	1 to 10 µM	1 to 10 µM	1 to 10 µM	1 to 10 µM	< 1 µM		
